Results from ChEMBL document CHEMBL4665869, “New thiazolopyrimidine as anticancer agents: Synthesis, biological evaluation, DNA binding, molecular modeling and ADMET study” (Bioorg Med Chem Lett, 2020).
Calls of active or inactive are those of the source. No cut-off for these calls is given here.

Assays:
Assay type in all cases: functional
LOX IMVI = experiment: Growth inhibition of human LOX IMVI cells at 10 uM relative to control
MDA-MB-468 = experiment: Growth inhibition of human MDA-MB-468 cells at 10 uM relative to control
T47D = experiment: Growth inhibition of human T47D cells at 10 uM relative to control; settings: read-out: GI
CCRF-CEM = experiment: Growth inhibition of human CCRF-CEM cells at 10 uM relative to control
HL-60(TB) = experiment: Growth inhibition of human HL-60(TB) cells at 10 uM relative to control
MOLT-4 = experiment: Growth inhibition of human MOLT-4 cells at 10 uM relative to control
RPMI-8226 = experiment: Growth inhibition of human RPMI-8226 cells at 10 uM relative to control
SR = experiment: Growth inhibition of human SR cells at 10 uM relative to control
A549 = experiment: Growth inhibition of human A549 cells at 10 uM relative to control
HOP-62 = experiment: Growth inhibition of human HOP-62 cells at 10 uM relative to control
NCI-H226 = experiment: Growth inhibition of human NCI-H226 cells at 10 uM relative to control; settings: read-out: GI
NCI-H23 = experiment: Growth inhibition of human NCI-H23 cells at 10 uM relative to control
NCI-H322M = experiment: Growth inhibition of human NCI-H322M cells at 10 uM relative to control; settings: read-out: GI
NCI-H460 = experiment: Growth inhibition of human NCI-H460 cells at 10 uM relative to control
NCI-H522 = experiment: Growth inhibition of human NCI-H522 cells at 10 uM relative to control
SW-620 = experiment: Growth inhibition of human SW-620 cells at 10 uM relative to control
COLO 205 = experiment: Growth inhibition of human COLO 205 cells at 10 uM relative to control
HCC 2998 = experiment: Growth inhibition of human HCC 2998 cells at 10 uM relative to control
HCT-15 = experiment: Growth inhibition of human HCT-15 cells at 10 uM relative to control
HT-29 = experiment: Growth inhibition of human HT-29 cells at 10 uM relative to control
KM12 = experiment: Growth inhibition of human KM12 cells at 10 uM relative to control
SF-268 = experiment: Growth inhibition of human SF-268 cells at 10 uM relative to control
SF-539 = experiment: Growth inhibition of human SF-539 cells at 10 uM relative to control
U-251 = experiment: Growth inhibition of human U-251 cells at 10 uM relative to control
Malme-3M = experiment: Growth inhibition of human Malme-3M cells at 10 uM relative to control
M14 = experiment: Growth inhibition of human M14 cells at 10 uM relative to control
MDA-MB-435 = experiment: Growth inhibition of human MDA-MB-435 cells at 10 uM relative to control
SK-MEL-2 = experiment: Growth inhibition of human SK-MEL-2 cells at 10 uM relative to control
SK-MEL-28 = experiment: Growth inhibition of human SK-MEL-28 cells at 10 uM relative to control
UACC-257 = experiment: Growth inhibition of human UACC-257 cells at 10 uM relative to control
UACC-62 = experiment: Growth inhibition of human UACC-62 cells at 10 uM relative to control
IGROV-1 = experiment: Growth inhibition of human IGROV-1 cells at 10 uM relative to control
OVCAR-4 = experiment: Growth inhibition of human OVCAR-4 cells at 10 uM relative to control; settings: read-out: GI
OVCAR-5 = experiment: Growth inhibition of human OVCAR-5 cells at 10 uM relative to control
SK-OV-3 = experiment: Growth inhibition of human SK-OV-3 cells at 10 uM relative to control
786-0 = experiment: Growth inhibition of human 786-0 cells at 10 uM relative to control
A498 = experiment: Growth inhibition of human A498 cells at 10 uM relative to control
ACHN = experiment: Growth inhibition of human ACHN cells at 10 uM relative to control
CAKI-1 = experiment: Growth inhibition of human CAKI-1 cells at 10 uM relative to control
RXF 393 = experiment: Growth inhibition of human RXF 393 cells at 10 uM relative to control
SN12C = experiment: Growth inhibition of human SN12C cells at 10 uM relative to control
UO-31 = experiment: Growth inhibition of human UO-31 cells at 10 uM relative to control
PC-3 = experiment: Growth inhibition of human PC-3 cells at 10 uM relative to control
DU-145 = experiment: Growth inhibition of human DU-145 cells at 10 uM relative to control
MCF7 = experiment: Growth inhibition of human MCF7 cells at 10 uM relative to control
Hs-578T = experiment: Growth inhibition of human Hs-578T cells at 10 uM relative to control; settings: read-out: GI
BT-549 = experiment: Growth inhibition of human BT-549 cells at 10 uM relative to control
[1] = Growth inhibition of human Non-small cell lung cancer cells; settings: Non-small cell lung cancer cell line
[2] = Growth inhibition of human colon cancer cells; settings: Colon cancer cell line
[3] = Growth inhibition of human CNS cancer cells; settings: CNS cell
Melanoma cell line = experiment: Growth inhibition of human melanoma cancer cells
[4] = Growth inhibition of human ovarian cancer cells; settings: Ovarian cancer cell line
[5] = Growth inhibition of human prostate cancer cells; settings: Prostate tumor cell line
[6] = Growth inhibition of human breast cancer cells; settings: Breast cancer cell line
[7] = tested on: Panel NCI-60 (60 carcinoma cell lines); experiment: Growth inhibition of human NCI60 cells
[8] = read-out: LC50 (the source's name)

COc1cc(/C=C/C2=CC(c3cc(OC)c(OC)c(OC)c3)N3C=C(C)SC3=N2)cc(OC)c1OC (stereo unspecified)
growth inhibition (GI) (LOX IMVI): Active
growth inhibition (GI) (MDA-MB-468): Active
inhibition of growth at 10 µM (T47D): 92%
growth inhibition (GI) (CCRF-CEM): Active
growth inhibition (GI) (HL-60(TB)): Active
growth inhibition (GI) (MOLT-4): Active
growth inhibition (GI) (RPMI-8226): Active
growth inhibition (GI) (SR): Active
growth inhibition (GI) (A549): Active
growth inhibition (GI) (HOP-62): Active
inhibition of growth at 10 µM (NCI-H226): 97.3%
growth inhibition (GI) (NCI-H23): Active
inhibition of growth at 10 µM (NCI-H322M): 86.4%
growth inhibition (GI) (NCI-H460): Active
growth inhibition (GI) (NCI-H522): Active
growth inhibition (GI) (SW-620): Active
growth inhibition (GI) (COLO 205): Active
growth inhibition (GI) (HCC 2998): Active
growth inhibition (GI) (HCT-15): Active
growth inhibition (GI) (HT-29): Active
growth inhibition (GI) (KM12): Active
growth inhibition (GI) (SF-268): Active
growth inhibition (GI) (SF-539): Active
growth inhibition (GI) (U-251): Active
growth inhibition (GI) (Malme-3M): Active
growth inhibition (GI) (M14): Active
growth inhibition (GI) (MDA-MB-435): Active
growth inhibition (GI) (SK-MEL-2): Active
growth inhibition (GI) (SK-MEL-28): Active
growth inhibition (GI) (UACC-257): Active
growth inhibition (GI) (UACC-62): Active
growth inhibition (GI) (IGROV-1): Active
inhibition of growth at 10 µM (OVCAR-4): 88.4%
growth inhibition (GI) (OVCAR-5): Active
growth inhibition (GI) (SK-OV-3): Active
growth inhibition (GI) (786-0): Active
growth inhibition (GI) (A498): Active
growth inhibition (GI) (ACHN): Active
growth inhibition (GI) (CAKI-1): Active
growth inhibition (GI) (RXF 393): Active
growth inhibition (GI) (SN12C): Active
growth inhibition (GI) (UO-31): Active
growth inhibition (GI) (PC-3): Active
growth inhibition (GI) (DU-145): Active
growth inhibition (GI) (MCF7): Active
inhibition of growth at 10 µM (Hs-578T): 98%
growth inhibition (GI) (BT-549): Active
GI50 [1]: 1.94 µM
TGI [1]: 4.81 µM
CC50 [1, 8]: 62.9 µM
GI50 [2]: 0.92 µM
TGI [2]: 3.62 µM
CC50 [2, 8]: 36 µM
GI50 [3]: 1.85 µM
TGI [3]: 10.2 µM
CC50 [3, 8]: 54.2 µM
GI50 (Melanoma cell line): 0.99 µM
TGI (Melanoma cell line): 3.37 µM
CC50 (Melanoma cell line; [8]): 18.2 µM
GI50 [4]: 1.75 µM
TGI [4]: 33.9 µM
CC50 [4, 8]: 76.5 µM
GI50 [5]: 1.69 µM
TGI [5]: 52.9 µM
CC50 [5, 8]: > 100 µM
GI50 [6]: 1.39 µM
TGI [6]: 17.9 µM
CC50 [6, 8]: 68.7 µM
GI50 [7]: 1.07 µM
LC50 [7]: 34.7 µM
TGI [7]: 6.61 µM
